# Earlier results in article PMC8472685, “Nanocrystalline Suspensions of Irbesartan Enhance Oral Bioavailability by Improving Drug Solubility and Leading Endocytosis Uptake into the Intestine” (Pharmaceutics, 2021).
# What was measured:
# [1] = for Aqueous solubility of crystalline form: forms A and B
# patients = system: patients; set-up: method as in PMID 9438776; conditions: 300 mg dose
# [2] = set-up: method as in PMID 9438775
Aqueous solubility of crystalline form [1],Time of Cmax after oral administration [2],Oral bioavailability (BA) ([2]; in patients),BCS class ([1]; low aqueous solubility and high permeability),Structure (SMILES),Decrease in BP from baseline (patients),Higher BP in treated compared to nontreated patients (so in the source) (patients)
11 µg/mL,,,,"CCCCC1=NC2(CCCC2)C(=O)N1Cc1ccc(-c2ccccc2-c2nnn[nH]2)cc1 [form A, irbesartan]",,
0.6 µg/mL,,,,"CCCCC1=NC2(CCCC2)C(=O)N1Cc1ccc(-c2ccccc2-c2nnn[nH]2)cc1 [form B, irbesartan]",,
,1.5 to 2 h,60–80%,BCS class II,CCCCC1=NC2(CCCC2)C(=O)N1Cc1ccc(-c2ccccc2-c2nnn[nH]2)cc1 [irbesartan],10 mmHg,approximately 70%
